Assay results reported in patent US7351687B2, “Antibiotic 107891, its factors A1 and A2, pharmaceutically acceptable salts and compositions, and use thereof” (priority 2003, dated 2008).
In brackets after ≈: the same amount, converted by molar mass. Like-named read-outs stand apart in the source and are kept apart here.

How the values were obtained:
[1] = tested on: Staph. epidermidis; assay: MIC, broth microdilution method (NCCLS M7-A5); format: cell-based
[2] = tested on: Strept. pneumoniae; assay: MIC, broth microdilution method (NCCLS M7-A5); format: cell-based
[3] = tested on: Ent. gallinarum; assay: MIC, broth microdilution method (NCCLS M7-A5); format: cell-based; settings: 4174 Ent. gallinarum
Protocol: Antimicrobial activity of the antibiotic 107891 was determined by the broth microdilution method according to the National Committee for Clinical Laboratory Standards recommendations (NCCLS, document M7-A5).
The strains used were clinical isolates or strains from American Type Culture Collection (ATCC).
Antibiotic 107891 was dissolved in DMSO to obtain a 1000 μg/ml stock solution, and subsequently diluted in water to obtain working solution. The media used were cation-adjusted Mueller Hinton broth (CAMHB) for Staphylococci, M. catarrhalis, Enterococci and L. monocytogenes; Todd Hewitt broth (THB) for Streptococci; GC medium+1% Isovitalex+1% haemine for Neisseria spp.; Brain Hearth Infusion+1% C supplement for H. influenzae; Lactobacillus broth for Lactobacilli; Middlebrook 7H9 with Middlebrook OADC enrichment for M. smegmatis; RPMI 1640 Medium for C. albicans. Wilkins Chalgren broth+oxyrase (1:25 v/v) for Clostridia; Brucella broth containing cisteine (0.5 g/L) for Propionibacteria. Inocula for bacteria were 10^5 CFU/ml. C. albicans inoculum was 1×10^4 CFU/ml. All the tests were performed in presence of 0.02% of bovine serum albumin (BSA). […] After 18-24 hours visual readings were performed and MICs determined. […]
Table VIII reports the antimicrobial activities of the individual Factors A1 and A2 of antibiotic 107891. MICs were determined by microbroth dilution method as above described.

[4] = tested on: Staph. aureus
[5] = tested on: Ent. faecalis
[6] = tested on: Ent. faecium
[7] = tested on: Neisseria meningitidis; settings: 1613 Neisseria meningitidis
[8] = tested on: Neisseria gonorrhaee; settings: 997 Neisseria gonorrhaee
[9] = tested on: Propionibacterium acnes; settings: 1016 Propionibacterium. acnes
[10] = 1400 Staphylococcus aureus cl. isol. Met r
[11] = 4341 Ent. faecalis VanB (first line, r17)
[12] = 4341 Ent. faecalis VanB (second line, r19)
[13] = 569 Enterococcus faecium cl. isol. Van A

Compound	MIC ([2]; 3915 Strept. pneumoniae Pen-S)	MIC ([2]; 3919 Strept. pneumoniae Pen-R)	MIC [3]	MIC ([4]; 819 Staph. aureus Met-S)	MIC [4, 10]	MIC ([4]; 1524 Staph. aureus Met-R)	MIC ([4]; 2235 Staph. aureus Met-R)	MIC [5]	MIC ([5]; 4323 Ent. faecalis VanA)	MIC [5, 11]	MIC [5, 12]	MIC ([5]; 4397 Ent. faecalis VanB)	MIC ([5]; J1 Ent. faecalis VanA)	MIC ([6]; 3 Ent. faecium Van A)	MIC ([6]; 4 Ent. faecium Van A)	MIC [6, 13]	MIC ([6]; 4339 Ent. faecium VanD)	MIC ([6]; 6349 Ent. faecium Van A LNZ-R)	MIC ([6]; A8 Ent. faecium Van A)	MIC ([6]; D561 Ent. faecium Van A)	other results
C=C1NC(=O)C(Cc2c[nH]c3ccc(Cl)cc23)NC(=O)C(NC(=O)C(=CC)NC(=O)C(N)C(C)C)CSCC(C(=O)NC2C(=O)N3CCCC3C(=O)NCC(=O)NC(C(=O)NC(C(=O)NC3CSCC4NC(=O)C(CC(N)=O)NC(=O)C(CSCC5NC(=O)C(Cc6ccccc6)NC(=O)C(CS/C=C\NC5=O)NC4=O)NC(=O)CNC(=O)CNC(=O)CNC(=O)C4CC(O)CN4C3=O)C(C)O)CSC2C)NC(=O)C(CC(C)C)NC1=O (centres unmarked) [Factor A2]	≦0.0015 μg/ml	≦0.0015 μg/ml	1 mg/L (≈ 0.448 µM)	≦0.03 μg/ml	0.13 mg/L (≈ 0.0582 µM)	≦0.03 μg/ml	0.06 mg/L (≈ 0.0269 µM)	2 mg/L (≈ 0.896 µM)	≦0.03 μg/ml	0.5 mg/L (≈ 0.224 µM)	2 mg/L (≈ 0.896 µM)	1 mg/L (≈ 0.448 µM)	1 mg/L (≈ 0.448 µM)	0.5 mg/L (≈ 0.224 µM)	1 mg/L (≈ 0.448 µM)	2 mg/L (≈ 0.896 µM)	0.25 mg/L (≈ 0.112 µM)	2 mg/L (≈ 0.896 µM)	0.5 mg/L (≈ 0.224 µM)	2 mg/L (≈ 0.896 µM)	MIC ([1]; 3881 Staph. epidermidis Met-R): ≦0.03 μg/ml; MIC ([6]; 568 Enterococcus faecium cl. isol.): 2 mg/L (≈ 0.896 µM); MIC [7]: 0.25 mg/L (≈ 0.112 µM); MIC [8]: 0.25 mg/L (≈ 0.112 µM); MIC [9]: 0.06 mg/L (≈ 0.0269 µM)
C=C1NC(=O)C(Cc2c[nH]c3ccc(Cl)cc23)NC(=O)C(NC(=O)C(=CC)NC(=O)C(N)C(C)C)CSCC(C(=O)NC2C(=O)N3CCCC3C(=O)NCC(=O)NC(C(=O)NC(C(=O)NC3CSCC4NC(=O)C(CC(N)=O)NC(=O)C(CSCC5NC(=O)C(Cc6ccccc6)NC(=O)C(CS/C=C\NC5=O)NC4=O)NC(=O)CNC(=O)CNC(=O)CNC(=O)C4C(O)C(O)CN4C3=O)C(C)O)CSC2C)NC(=O)C(CC(C)C)NC1=O (centres unmarked) [Factor A1]	≦0.0015 μg/ml	≦0.0015 μg/ml	1 mg/L (≈ 0.445 µM)	≦0.03 μg/ml	0.13 mg/L (≈ 0.0578 µM)	≦0.03 μg/ml	0.06 mg/L (≈ 0.0267 µM)	1 mg/L (≈ 0.445 µM)	≦0.03 μg/ml	0.5 mg/L (≈ 0.222 µM)	2 mg/L (≈ 0.889 µM)	1 mg/L (≈ 0.445 µM)	1 mg/L (≈ 0.445 µM)	0.5 mg/L (≈ 0.222 µM)	1 mg/L (≈ 0.445 µM)	1 mg/L (≈ 0.445 µM)	0.25 mg/L (≈ 0.111 µM)	2 mg/L (≈ 0.889 µM)	0.5 mg/L (≈ 0.222 µM)	2 mg/L (≈ 0.889 µM)	MIC ([1]; 3894 Staph. epidermidis Met-R): ≦0.03 μg/ml; MIC [7]: 0.25 mg/L (≈ 0.111 µM); MIC [8]: 0.5 mg/L (≈ 0.222 µM); MIC [9]: <0.03 mg/L
C=C1NC(=O)[C@H](Cc2c[nH]c3ccc(Cl)cc23)NC(=O)[C@H](NC(=O)/C(=C/C)NC(=O)[C@@H](N)C(C)C)CSC[C@@H](C(=O)N[C@H]2C(=O)N3CCC[C@H]3C(=O)NCC(=O)N[C@H](C(=O)N[C@H](C(=O)N[C@@H]3CSC[C@@H]4NC(=O)[C@H](CC(N)=O)NC(=O)[C@@H](CSC[C@@H]5NC(=O)[C@H](Cc6ccccc6)NC(=O)[C@@H](CS/C=C\NC5=O)NC4=O)NC(=O)CNC(=O)CNC(=O)CNC(=O)[C@@H]4CCCN4C3=O)[C@@H](C)O)CS[C@H]2C)NC(=O)[C@H](CC(C)C)NC1=O [MF-BA-1768α1, reference compound]								4 mg/L (≈ 1.8 µM)													
